Source: ChEMBL document CHEMBL1201862, “PubChem BioAssay data set” (2004)
The source made the active and inactive calls.

Assays:
[1] = target: T1, Mannose-6-phosphate isomerase (Homo sapiens, UniProt P34949); test: human PMI inhibitors, high substrate, primary screen, biochemical, fluorescence intensity, high mannose 6-phosphate (AID 1220)
T1 sequence (P34949 whole entry): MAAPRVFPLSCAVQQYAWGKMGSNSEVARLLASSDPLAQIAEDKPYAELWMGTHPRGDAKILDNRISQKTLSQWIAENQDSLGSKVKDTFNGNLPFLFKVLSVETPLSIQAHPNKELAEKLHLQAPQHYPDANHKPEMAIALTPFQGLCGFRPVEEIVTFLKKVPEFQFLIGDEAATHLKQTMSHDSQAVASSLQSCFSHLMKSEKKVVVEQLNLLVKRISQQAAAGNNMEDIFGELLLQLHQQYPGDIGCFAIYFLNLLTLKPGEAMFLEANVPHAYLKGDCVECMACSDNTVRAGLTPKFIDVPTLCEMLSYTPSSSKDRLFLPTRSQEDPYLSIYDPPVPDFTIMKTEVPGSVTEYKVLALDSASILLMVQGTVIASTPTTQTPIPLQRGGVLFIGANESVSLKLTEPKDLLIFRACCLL

[2] = HepG2 cell cytotoxicity, dose response, cytotoxicity control, plate reader, cherry-pick, antagonist series (AID 743416); assay type: functional, cell-based
[3] = HEK293 cell cytotoxicity, dose response, cytotoxicity control, plate reader, cherry-picked samples (AID 743446); assay type: functional, cell-based
[4] = A549 cell cytotoxicity, dose response, cytotoxicity control, plate reader, cherry-pick, antagonist series (AID 743412); assay type: functional, cell-based
[5] = MC4R antagonists, dose response, counter-screen for LGR2 antagonist project, cell-based, plate reader, cherry pick (AID 743444); assay type: functional;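 note: transfected HEK 293 cells stimulated with alpha-MSH peptide; potency of inhibitors of the alpha-MSH evoked signal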
[6] = LGR2 antagonists, dose response, cell-based, HEK293, CRE-luciferase reporter, cherry pick, set 2 (AID 743343); assay type: functional;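 note: transfected cells were stimulated with diluted bursicon conditioned medium after compound addition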
[7] = target: Ras and Rab interactor 1/Tyrosine-protein kinase ABL1 (Homo sapiens, UniProt P00519+Q13671); assay type: functional;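 note: biochemical TR-FRET dose-response test measuring inhibition of binding between Rin1 and Abl proteins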
[8] = P. falciparum late gametocyte killing, dose response, luminescence (AID 1117278); assay type: functional, cell-based;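 note: gametocytes exposed to compound for 24 hours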
[9] = C. albicans growth with fluconazole, confirmation, fluorescence, retest (AID 2467); assay type: functional, cell-based
[10] = Jurkat T cell cytotoxicity, dose response, cytotoxicity control for P. falciparum gametocyte viability project, luminescence (AID 1117277); assay type: functional, cell-based;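 note: potency reflects loss of cellular ATP meaning fewer viable cells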
[11] = NIH-3T3 fibroblast cytotoxicity, dose response, cytotoxicity control, cell-based, fluorescence, Alamar Blue, secondary assay (AID 2327); assay type: functional;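 note: NIH-3T3 mouse fibroblasts cultured with fluconazole at 8 µg/mL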
[12] = target: T2, DNA repair and recombination protein RAD54-like (Homo sapiens, UniProt Q92698); test: inhibitors of human RAD54 branch migration, confirmation, biochemical, fluorescence, cherry-picked samples, dose series (AID 651657); assay type: functional
T2 sequence (Q92698 whole entry): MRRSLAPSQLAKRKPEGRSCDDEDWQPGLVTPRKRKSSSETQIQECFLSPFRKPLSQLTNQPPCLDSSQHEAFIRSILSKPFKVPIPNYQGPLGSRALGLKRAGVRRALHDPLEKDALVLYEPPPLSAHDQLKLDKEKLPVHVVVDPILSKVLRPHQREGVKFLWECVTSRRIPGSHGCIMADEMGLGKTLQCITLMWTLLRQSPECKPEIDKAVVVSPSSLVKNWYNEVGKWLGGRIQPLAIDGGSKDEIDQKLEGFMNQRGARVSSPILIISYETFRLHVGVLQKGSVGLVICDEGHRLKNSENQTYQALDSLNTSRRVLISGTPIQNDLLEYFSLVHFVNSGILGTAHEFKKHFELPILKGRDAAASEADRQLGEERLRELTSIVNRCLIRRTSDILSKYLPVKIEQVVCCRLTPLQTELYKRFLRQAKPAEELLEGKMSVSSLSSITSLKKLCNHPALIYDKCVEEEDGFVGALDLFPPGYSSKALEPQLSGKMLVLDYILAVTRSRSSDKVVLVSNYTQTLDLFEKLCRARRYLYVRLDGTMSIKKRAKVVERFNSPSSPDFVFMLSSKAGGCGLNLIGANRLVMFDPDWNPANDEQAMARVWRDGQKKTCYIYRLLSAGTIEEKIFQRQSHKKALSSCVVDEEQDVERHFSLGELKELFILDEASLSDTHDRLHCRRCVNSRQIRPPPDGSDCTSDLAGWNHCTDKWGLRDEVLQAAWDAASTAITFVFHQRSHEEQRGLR

[13] = target: Endoplasmic reticulum aminopeptidase 1 (Homo sapiens, UniProt Q9NZ08); test: ERAP1 aminopeptidase inhibitors, dose response, biochemical, cherry-pick, set 2, plate reader (AID 743314)
[14] = target: Prothrombin (Bos taurus, UniProt P00735); test: thrombin inhibition, dose response, biochemical, fluorescence polarization, uHTS hits (AID 602369); assay type: functional
[15] = target: 72 kDa type IV collagenase (Homo sapiens, UniProt P08253); test: Dose Response validation of uHTS RPN11 inhibitor hits using a MMP-2 Fluorescence assay.; assay type: functional
[16] = target: Photoreceptor-specific nuclear receptor (Homo sapiens, UniProt Q9Y5X4); test: NR2E3 inverse agonists, dose response, biochemical, TR-FRET (AID 463256); assay type: functional
[17] = target: Peroxisome proliferator-activated receptor gamma/Nuclear receptor corepressor 2 (Homo sapiens, UniProt P37231+Q9Y618); test: Counterscreen for NR2E3 inverse agonists: TR-FRET-based biochemical high throughput dose response assay to identify inverse agonists of the interaction between peroxisome proliferator-activated receptor gamma (PPARg) and nuclear receptor co-repressor 2 (NCOR2).; assay type: functional
[18] = target: 26S proteasome non-ATPase regulatory subunit 14 (Homo sapiens, UniProt O00487); test: inhibition of proteasome subunit RPN11 – biochemical, fluorescence polarization, uHTS hits, confirmation (AID 602368); assay type: functional
[19] = target: Cytochrome P450 2C19 (Homo sapiens, UniProt P33261); test: qHTS Assay for Inhibitors and Substrates of Cytochrome P450 2C19. [Related pubchem assays: 410 ]; assay type: ADME; conditions: read-out: Potency
[20] = test system: Vero; test: West Nile virus antiviral activity, cell-based, CPE readout (AID 1621); assay type: functional; conditions: Chlorocebus sabaeus
[21] = HEK293T cytotoxicity, dose response, cytotoxicity control for miR-122 modulator project, cell-based, activator set, cherry-pick (AID 720690); assay type: functional;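 note: HEK293T human cells scored for general mammalian cytotoxicity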
[22] = HepG2 cell cytotoxicity, dose response, cytotoxicity control for Shn3 inhibitor project, CellTiter-Glo, cherry-picked (AID 624134); assay type: functional, cell-based
[23] = HEK293T cytotoxicity, dose response, cytotoxicity control for miR-122 modulator project, cell-based, inhibitor set, cherry-pick, set 2 (AID 720697); assay type: functional
[24] = test system: BJ; test: cytotoxicity toward BJ-TERT-LT-ST fibroblasts, dose response, cell-based, RAS-independent, luminescence (AID 1935); assay type: functional; conditions: Homo sapiens;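 note: BJ fibroblasts immortalized with TERT plus LT and ST oncogenes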
[25] = cytotoxicity in HEK-293T cells, dose response, cytotoxicity control for BCR NF-kB inhibitor project, luminescence, B-cell screen hits (AID 489021); assay type: functional, cell-based;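 note: HEK-293T cells carrying an NF-kB luciferase reporter; cells exposed to compound for about 14 hours before viability readout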
[26] = test system: INS1; test: beta cell apoptosis inhibitors, cytokine rescue, dose response, luminescence, retest (AID 449756); assay type: functional, cell-based; conditions: Rattus norvegicus;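 note: cell death triggered by IL-1 beta plus TNF-alpha plus IFN-gamma mixture; protective hits raise ATP signal compared with cytokine alone wells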
[27] = test system: BJ; test: cells; assay type: functional, cell-based; conditions: Homo sapiens
[28] = Shn3 3'UTR reporter inhibitors, dose response, cell-based, Clone20 osteoblasts, firefly luciferase, cherry-picked (AID 624132); assay type: functional;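 note: firefly luciferase luminescence from reporter carrying the Shn3 3'UTR in osteoblasts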
[29] = test system: Streptococcus; test: Group A Streptococcus viability loss, dose response, counter-screen for streptokinase expression inhibitor project, luminescence, BacTiterGlo (AID 1915); assay type: functional, organism-based;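 note: potency for reduction of bacterial viability or growth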
[30] = test system: Streptococcus sp. 'group A'; test: growth inhibition of control SK(-) GAS strain, dose response, counter-screen for streptokinase expression inhibitor project, luminescence, kanamycin, BacTiterGlo, confirmation (AID 1900); assay type: functional, organism-based
[31] = inhibitors of PGC1a acetylation in cells, dose response, cell-based, cherry-picked samples (AID 720514); assay type: functional;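 note: potency may reflect raised or lowered acetylation signal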
[32] = target: T3, Streptokinase A (Streptococcus pyogenes serotype M1, UniProt P10520); test: S. pyogenes streptokinase expression inhibitors, potency, dose response, plasminogen activation absorbance, OD405 (AID 1914); assay type: functional, Streptococcus pyogenes M1 GAS;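 note: secreted streptokinase activity via plasminogen activation per viability signal from cell pellet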
T3 sequence (P10520 whole entry): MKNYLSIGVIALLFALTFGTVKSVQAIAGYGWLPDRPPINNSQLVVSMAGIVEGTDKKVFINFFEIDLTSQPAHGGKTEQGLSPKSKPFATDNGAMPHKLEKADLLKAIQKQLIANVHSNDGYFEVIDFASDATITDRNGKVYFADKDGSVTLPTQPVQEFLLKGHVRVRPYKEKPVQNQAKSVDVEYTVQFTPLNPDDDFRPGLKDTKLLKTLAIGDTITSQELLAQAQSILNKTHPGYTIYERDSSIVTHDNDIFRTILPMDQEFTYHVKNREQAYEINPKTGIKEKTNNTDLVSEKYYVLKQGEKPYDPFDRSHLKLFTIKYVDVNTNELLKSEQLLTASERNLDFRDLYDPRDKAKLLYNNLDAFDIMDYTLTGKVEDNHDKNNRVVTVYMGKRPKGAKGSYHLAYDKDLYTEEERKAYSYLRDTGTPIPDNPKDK

[33] = test system: BJ; test: cytotoxicity toward BJ-TERT fibroblasts, dose response, cell-based, RAS-independent, luminescence (AID 1933); assay type: functional; conditions: Homo sapiens
[34] = miR-122 activators in hepatoma reporter cells, dose response, cell-based, Huh7 psiCHECK-miR122, Renilla luciferase, cherry-picked (AID 651956); assay type: functional;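 note: huh7 hepatoma cells stably carrying a psiCHECK-2 miR-122 sensor plasmid; renilla luciferase signal reporting endogenous miR-122 activity after 48 h compound exposure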
[35] = control 3'UTR Renilla luciferase suppression, dose response, counter-screen for Shn3 inhibitor project, cell-based, Clone20-Shn3RL, cherry-picked (AID 624133); assay type: functional
[36] = cytotoxicity toward DRD oncogenic fibroblasts, dose response, cell-based, non-viral oncogenic, luminescence (AID 1934); assay type: functional; conditions: Homo sapiens
[37] = P. falciparum ATP4 D1247Y mutant growth inhibitors, dose response, NITD609-resistant line, SYBR Green, dry powder (AID 1159571); assay type: functional, cell-based;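 note: parasites synchronized at ring stage by sorbitol before testing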
[38] = HepG2 cell cytotoxicity, dose response, cytotoxicity control, plate reader, dry powder samples (AID 1159569); assay type: functional, cell-based;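 note: inhibitor potency with signal falling toward the positive control level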
[39] = P. falciparum 3D7-ScDHODH growth inhibitors, dose response, SYBR Green, dry powder samples (AID 1159570); assay type: functional, cell-based;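 note: parasite growth measured after 72 hours of compound exposure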
[40] = HepG2 cell cytotoxicity, dose response, cytotoxicity control, cherry-picked samples (AID 1159577); assay type: functional, cell-based
[41] = P. falciparum Dd2 growth inhibitors, dose response, SYBR Green, cherry-picked samples (AID 1159567); assay type: functional, cell-based
[42] = P. falciparum Dd2 growth inhibitors, dose response, SYBR Green, dry powder samples (AID 1159566); assay type: functional, cell-based;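 note: potency for growth inhibition with lower SYBR green DNA signal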

Cytochrome P450 2C19, sequence (P33261 whole entry): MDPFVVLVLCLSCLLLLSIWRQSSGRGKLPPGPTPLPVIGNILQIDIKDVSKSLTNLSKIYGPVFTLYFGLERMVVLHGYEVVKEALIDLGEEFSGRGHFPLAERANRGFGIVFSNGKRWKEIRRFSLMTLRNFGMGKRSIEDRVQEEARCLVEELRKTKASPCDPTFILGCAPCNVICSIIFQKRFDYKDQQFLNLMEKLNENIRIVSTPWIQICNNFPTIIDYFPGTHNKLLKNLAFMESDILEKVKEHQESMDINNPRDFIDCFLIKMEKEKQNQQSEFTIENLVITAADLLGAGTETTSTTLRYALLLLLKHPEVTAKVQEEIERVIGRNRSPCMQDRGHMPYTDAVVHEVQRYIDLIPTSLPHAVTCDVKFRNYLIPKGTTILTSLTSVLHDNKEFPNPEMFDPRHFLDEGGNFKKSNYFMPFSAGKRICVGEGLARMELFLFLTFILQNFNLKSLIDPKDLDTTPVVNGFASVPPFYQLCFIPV
Peroxisome proliferator-activated receptor gamma/Nuclear receptor corepressor 2, sequence (P37231 whole entry): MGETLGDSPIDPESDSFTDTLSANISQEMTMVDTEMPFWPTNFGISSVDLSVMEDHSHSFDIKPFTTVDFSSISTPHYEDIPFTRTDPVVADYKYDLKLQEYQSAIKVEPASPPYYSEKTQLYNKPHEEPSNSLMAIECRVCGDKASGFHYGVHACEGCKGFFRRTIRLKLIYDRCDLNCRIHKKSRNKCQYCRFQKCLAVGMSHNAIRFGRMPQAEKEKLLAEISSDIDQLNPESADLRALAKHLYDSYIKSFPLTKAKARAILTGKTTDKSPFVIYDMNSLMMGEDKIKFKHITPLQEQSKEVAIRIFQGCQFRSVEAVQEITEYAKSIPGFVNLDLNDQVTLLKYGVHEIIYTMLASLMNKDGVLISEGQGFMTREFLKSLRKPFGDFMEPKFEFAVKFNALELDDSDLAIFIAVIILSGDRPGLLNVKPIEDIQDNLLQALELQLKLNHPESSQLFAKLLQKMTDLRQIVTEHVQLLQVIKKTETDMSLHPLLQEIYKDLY
Peroxisome proliferator-activated receptor gamma/Nuclear receptor corepressor 2, sequence (Q9Y618 whole entry): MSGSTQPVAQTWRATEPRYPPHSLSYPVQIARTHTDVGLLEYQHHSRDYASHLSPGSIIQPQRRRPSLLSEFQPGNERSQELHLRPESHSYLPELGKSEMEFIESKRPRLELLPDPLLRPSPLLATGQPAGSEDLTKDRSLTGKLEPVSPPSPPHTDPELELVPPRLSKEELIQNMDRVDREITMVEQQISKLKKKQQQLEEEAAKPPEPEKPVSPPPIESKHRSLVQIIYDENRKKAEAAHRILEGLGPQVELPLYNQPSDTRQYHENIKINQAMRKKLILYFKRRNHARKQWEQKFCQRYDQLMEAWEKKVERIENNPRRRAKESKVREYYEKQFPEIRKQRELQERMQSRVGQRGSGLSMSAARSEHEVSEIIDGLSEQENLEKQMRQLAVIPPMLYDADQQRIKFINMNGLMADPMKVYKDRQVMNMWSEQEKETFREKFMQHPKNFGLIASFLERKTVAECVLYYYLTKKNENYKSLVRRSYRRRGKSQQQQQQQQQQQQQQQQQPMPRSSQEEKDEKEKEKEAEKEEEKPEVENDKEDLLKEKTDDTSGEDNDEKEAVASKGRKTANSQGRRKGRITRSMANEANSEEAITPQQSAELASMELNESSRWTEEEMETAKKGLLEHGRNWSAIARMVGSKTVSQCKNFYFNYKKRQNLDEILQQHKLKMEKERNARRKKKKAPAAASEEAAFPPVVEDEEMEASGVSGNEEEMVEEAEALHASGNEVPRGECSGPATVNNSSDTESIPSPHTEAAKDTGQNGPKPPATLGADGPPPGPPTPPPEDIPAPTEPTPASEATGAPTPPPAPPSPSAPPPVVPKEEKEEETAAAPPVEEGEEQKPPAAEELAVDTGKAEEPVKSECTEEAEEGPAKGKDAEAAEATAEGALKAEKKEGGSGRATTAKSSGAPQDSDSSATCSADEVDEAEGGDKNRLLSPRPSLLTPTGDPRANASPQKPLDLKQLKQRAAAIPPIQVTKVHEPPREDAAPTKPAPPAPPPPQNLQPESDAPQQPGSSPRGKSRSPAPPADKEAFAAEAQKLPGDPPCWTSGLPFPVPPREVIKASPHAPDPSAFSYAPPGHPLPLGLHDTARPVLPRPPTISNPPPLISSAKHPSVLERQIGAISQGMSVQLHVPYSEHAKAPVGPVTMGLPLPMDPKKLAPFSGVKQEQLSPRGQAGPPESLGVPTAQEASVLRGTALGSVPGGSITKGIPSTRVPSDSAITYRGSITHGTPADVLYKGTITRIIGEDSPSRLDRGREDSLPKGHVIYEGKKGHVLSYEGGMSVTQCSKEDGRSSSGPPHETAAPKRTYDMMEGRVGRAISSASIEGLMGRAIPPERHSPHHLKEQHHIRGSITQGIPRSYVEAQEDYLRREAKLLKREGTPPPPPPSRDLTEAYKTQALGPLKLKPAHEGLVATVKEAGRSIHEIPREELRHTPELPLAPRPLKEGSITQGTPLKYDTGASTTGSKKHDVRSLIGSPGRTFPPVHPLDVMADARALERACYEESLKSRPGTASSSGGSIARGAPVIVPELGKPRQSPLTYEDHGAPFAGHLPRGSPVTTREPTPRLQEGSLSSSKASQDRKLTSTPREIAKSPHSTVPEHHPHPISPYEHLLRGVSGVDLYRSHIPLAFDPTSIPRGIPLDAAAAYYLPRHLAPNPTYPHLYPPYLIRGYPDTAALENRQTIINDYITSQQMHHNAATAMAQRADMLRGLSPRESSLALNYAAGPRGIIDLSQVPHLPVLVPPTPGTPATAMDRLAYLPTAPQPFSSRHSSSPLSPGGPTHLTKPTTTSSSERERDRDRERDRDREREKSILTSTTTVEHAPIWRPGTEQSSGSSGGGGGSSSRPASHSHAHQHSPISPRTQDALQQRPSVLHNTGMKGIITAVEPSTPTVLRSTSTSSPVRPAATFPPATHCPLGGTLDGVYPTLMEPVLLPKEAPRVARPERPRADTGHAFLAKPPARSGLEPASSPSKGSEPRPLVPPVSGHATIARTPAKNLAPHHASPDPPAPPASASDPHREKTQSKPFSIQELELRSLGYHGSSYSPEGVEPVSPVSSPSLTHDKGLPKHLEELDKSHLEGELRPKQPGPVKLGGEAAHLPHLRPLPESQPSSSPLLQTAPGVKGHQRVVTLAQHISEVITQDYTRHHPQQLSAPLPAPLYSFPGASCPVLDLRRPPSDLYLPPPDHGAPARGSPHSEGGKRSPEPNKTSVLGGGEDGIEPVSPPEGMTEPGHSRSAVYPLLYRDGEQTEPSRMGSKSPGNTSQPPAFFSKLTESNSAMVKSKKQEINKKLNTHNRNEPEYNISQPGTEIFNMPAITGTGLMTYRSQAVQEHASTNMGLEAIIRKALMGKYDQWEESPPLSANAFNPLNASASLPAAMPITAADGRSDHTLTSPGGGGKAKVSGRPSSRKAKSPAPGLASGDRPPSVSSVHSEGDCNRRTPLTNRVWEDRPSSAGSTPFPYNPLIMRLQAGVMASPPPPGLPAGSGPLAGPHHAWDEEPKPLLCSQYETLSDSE
Photoreceptor-specific nuclear receptor, sequence (Q9Y5X4 whole entry): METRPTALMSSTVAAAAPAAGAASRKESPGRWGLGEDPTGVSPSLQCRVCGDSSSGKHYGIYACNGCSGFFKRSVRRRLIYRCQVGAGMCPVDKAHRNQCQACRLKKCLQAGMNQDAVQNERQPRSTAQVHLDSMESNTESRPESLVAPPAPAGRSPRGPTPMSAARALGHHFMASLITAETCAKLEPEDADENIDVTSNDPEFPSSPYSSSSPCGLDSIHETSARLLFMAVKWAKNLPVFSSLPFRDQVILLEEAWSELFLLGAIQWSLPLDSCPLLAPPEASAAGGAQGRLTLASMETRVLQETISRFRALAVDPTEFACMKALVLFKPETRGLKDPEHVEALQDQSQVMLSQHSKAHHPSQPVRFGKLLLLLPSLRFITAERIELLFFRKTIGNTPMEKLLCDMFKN
26S proteasome non-ATPase regulatory subunit 14, sequence (O00487 whole entry): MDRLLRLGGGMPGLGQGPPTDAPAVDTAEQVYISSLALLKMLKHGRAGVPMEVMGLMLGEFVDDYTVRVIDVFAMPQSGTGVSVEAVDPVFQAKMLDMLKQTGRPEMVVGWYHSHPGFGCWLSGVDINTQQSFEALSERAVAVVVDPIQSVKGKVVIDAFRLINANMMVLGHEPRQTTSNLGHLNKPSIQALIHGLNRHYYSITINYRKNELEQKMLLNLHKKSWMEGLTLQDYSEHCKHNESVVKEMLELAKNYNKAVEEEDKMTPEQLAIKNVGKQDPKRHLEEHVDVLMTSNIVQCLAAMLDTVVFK
72 kDa type IV collagenase, sequence (P08253 whole entry): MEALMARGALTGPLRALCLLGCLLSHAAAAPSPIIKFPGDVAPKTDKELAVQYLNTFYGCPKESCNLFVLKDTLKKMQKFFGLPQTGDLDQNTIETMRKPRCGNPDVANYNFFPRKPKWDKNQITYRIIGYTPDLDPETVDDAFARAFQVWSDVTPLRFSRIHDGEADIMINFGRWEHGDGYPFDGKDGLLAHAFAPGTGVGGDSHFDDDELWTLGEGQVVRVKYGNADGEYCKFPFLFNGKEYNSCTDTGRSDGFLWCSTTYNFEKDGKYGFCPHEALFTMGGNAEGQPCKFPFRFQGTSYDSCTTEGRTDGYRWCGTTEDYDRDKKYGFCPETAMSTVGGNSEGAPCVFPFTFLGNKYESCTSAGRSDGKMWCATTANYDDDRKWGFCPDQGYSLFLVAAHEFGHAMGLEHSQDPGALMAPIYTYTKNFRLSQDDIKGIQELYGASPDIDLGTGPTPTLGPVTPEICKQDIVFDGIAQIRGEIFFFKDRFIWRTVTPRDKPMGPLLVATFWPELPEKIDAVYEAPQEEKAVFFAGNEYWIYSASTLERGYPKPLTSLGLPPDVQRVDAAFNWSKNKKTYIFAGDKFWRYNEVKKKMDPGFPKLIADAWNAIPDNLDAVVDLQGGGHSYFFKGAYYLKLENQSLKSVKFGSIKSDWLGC

## Nc1c(N2CCOCC2)cc(Cl)c2nonc12
[1]
  IC50: > 50 µM (not active)

## CCOC(=O)c1ccc(NC(=O)COc2ccccc2CNCCc2ccccc2)cc1
[2]
  AC50: 13.9 µM (active)
[3]
  AC50: 15.4 µM (active)
[4]
  AC50: 10 µM (active)
[5]
  AC50: 27.7 µM (active)
[6]
  AC50: 17.4 µM (active)
[7]
  IC50: 25.9 µM (inactive)

## CC(=O)c1cnc(Nc2cccc(Cl)c2Cl)s1
[8]
  IC50: > 109 µM (inactive)
[9]
  EC50: > 38 µM (not active)
[10]
  IC50: > 83.3 µM (inactive)
[11]
  EC50: > 160 µM (inactive)

## CN1CCCC1CCNc1ccc2c(=O)c3ccccc3oc2c1 (configuration not stated)
[12]
  AC50: 21.1 µM (active)
[13]
  AC50: 4.52 µM (active)

## Cc1c(NC(=O)c2cccc(-c3cc4ccccc4oc3=O)c2)cccc1-c1nc2ncccc2o1
[14]
  IC50: 92 µM (active)
[15]
  IC50: > 100 µM (inactive)
[16]
  IC50: 2.33 µM (active)
[17]
  IC50: 1.72 µM (active)
[18]
  IC50: 24.1 µM (active)

## Cc1ccc(NCC(O)C(O)C(O)CO)cc1C (configuration not stated)
[8]
  IC50: > 109 µM (inactive)
[10]
  IC50: > 83.3 µM (inactive)

## CC(=O)c1ccc(C2C=CC(Oc3ccc(F)cc3C)C(CO)O2)cc1 (configuration not stated)
[19]
  AC50: 6.31 µM (inconclusive)

## O=C(Cc1ccc(Cl)cc1)Nc1ccc2oc(-c3ccncc3)nc2c1
[16]
  IC50: 4.29 µM (active)
[17]
  IC50: 5.54 µM (active)

## CCOC(=O)c1[nH]c2ccccc2c1NC(=O)CC(C)(C)C
[20]
  IC50: 22.2 µM (active)

## COc1cccc(N2CCN(c3[nH]cnc4c5cc(F)ccc5nc3-4)CC2C)c1 (configuration not stated)
[21]
  AC50: 3.35 µM (active)
[22]
  AC50: 9.99 µM (active)
[23]
  AC50: 3.06 µM (active)
[24]
  EC50: 8.16 µM (active)
[25]
  IC50: 1.83 µM (active)
[26]
  AC50: 2.25 µM (active)
[27]
  EC50: 9.04 µM (active)
[28]
  AC50: 1.31 µM (active)
[29]
  EC50: 48.4 µM (active)
[30]
  EC50: 8 µM (active)
[31]
  AC50: 6.56 µM (active)
[32]
  EC50: 15.3 µM (active)
[33]
  EC50: 6.14 µM (inconclusive)
[34]
  AC50: 6.99 µM (active)
[35]
  AC50: 0.49 µM (active)
[36]
  EC50: 6.44 µM (active)

## NC(=O)COC(=O)CC(NC(N)=O)c1ccc(Cl)cc1 (configuration not stated)
[31]
  AC50: 28.7 µM (active)

## Cc1nc(N2[C@H](CO)[C@H](c3ccccc3)[C@H]2CNCC2CCCCC2)sc1C
[37]
  AC50: 0.691 µM (active)
[38]
  AC50: 71.2 µM (active)
[39]
  AC50: 1.03 µM (active)
[40]
  AC50: > 42 µM (inactive)
[41]
  AC50: 1.13 µM (active)
[42]
  AC50: 0.595 µM (active)

## C[C@H]1CN([C@@H](C)CO)S(=O)(=O)c2ccc(C#CC3CCCCC3)cc2O[C@H]1CN(C)C
[37]
  AC50: 2.42 µM (active)
[38]
  AC50: > 100 µM (inactive)
[39]
  AC50: 8.69 µM (active)
[42]
  AC50: 4.6 µM (active)

## C=C[C@@]1(C)C=C2CC[C@@H]3[C@](C)(CCC[C@@]3(C)C(=O)O)[C@H]2CC1 [PIMARIC ACID]
[19]
  AC50: 7.94 µM (inconclusive)
